In PubChem BioAssay (NCI):
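Exposure lasted 48 hours, with cells grown in 96-well plates and compounds tested at five concentrations. At the GI50, growth is halved. The concentration for full growth arrest is given as TGI.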

Tests used:
Test in all cases: NCI anticancer screen, dose series, 48 h
NCI-H226 lung = system: NCI-H226 lung
NCI-H460 lung = system: NCI-H460 lung
NCI-H522 lung = system: NCI-H522 lung
NCI/ADR-RES ovarian = system: NCI/ADR-RES ovarian
OVCAR-3 ovarian = system: OVCAR-3 ovarian
OVCAR-4 ovarian = system: OVCAR-4 ovarian
OVCAR-5 ovarian = system: OVCAR-5 ovarian
OVCAR-8 ovarian = system: OVCAR-8 ovarian
PC-3 prostate = system: PC-3 prostate
RPMI-8226 leukemia = system: RPMI-8226 leukemia
RXF 393 renal = system: RXF 393 renal
SF-268 CNS = system: SF-268 CNS
SF-295 CNS = system: SF-295 CNS
SF-539 CNS = system: SF-539 CNS
SK-MEL-2 melanoma = system: SK-MEL-2 melanoma
SK-MEL-28 melanoma = system: SK-MEL-28 melanoma
SK-MEL-5 melanoma = system: SK-MEL-5 melanoma
SK-OV-3 ovarian = system: SK-OV-3 ovarian
SN12C renal = system: SN12C renal
SNB-19 CNS = system: SNB-19 CNS
SNB-75 CNS = system: SNB-75 CNS
SR leukemia = system: SR leukemia
SW-620 colon = system: SW-620 colon
T-47D breast = system: T-47D breast
TK-10 renal = system: TK-10 renal
U251 CNS = system: U251 CNS
UACC-257 melanoma = system: UACC-257 melanoma
UACC-62 melanoma = system: UACC-62 melanoma
UO-31 renal = system: UO-31 renal

SMILES: COCCNc1ccc2ncc(C#Cc3cncc(C(=O)Nc4ccc(CN5CCN(C)CC5)c(C(F)(F)F)c4)c3)n2n1
- TGI (NCI-H226 lung): 980 nM
- GI50 (NCI-H460 lung): 123 nM
- TGI (NCI-H460 lung): 621 nM
- GI50 (NCI-H522 lung): 99.8 nM
- TGI (NCI-H522 lung): 315 nM
- GI50 (NCI/ADR-RES ovarian): 1890 nM
- TGI (NCI/ADR-RES ovarian): 50000 nM
- GI50 (OVCAR-3 ovarian): 232 nM
- TGI (OVCAR-3 ovarian): 1340 nM
- GI50 (OVCAR-4 ovarian): 352 nM
- TGI (OVCAR-4 ovarian): 2030 nM
- GI50 (OVCAR-5 ovarian): 234 nM
- TGI (OVCAR-5 ovarian): 1400 nM
- GI50 (OVCAR-8 ovarian): 197 nM
- TGI (OVCAR-8 ovarian): 830 nM
- GI50 (PC-3 prostate): 254 nM
- TGI (PC-3 prostate): 2130 nM
- GI50 (RPMI-8226 leukemia): 195 nM
- TGI (RPMI-8226 leukemia): 719 nM
- GI50 (RXF 393 renal): 145 nM
- TGI (RXF 393 renal): 432 nM
- GI50 (SF-268 CNS): 156 nM
- TGI (SF-268 CNS): 737 nM
- GI50 (SF-295 CNS): 708 nM
- TGI (SF-295 CNS): 3330 nM
- GI50 (SF-539 CNS): 41.4 nM
- TGI (SF-539 CNS): 215 nM
- GI50 (SK-MEL-2 melanoma): 97.8 nM
- TGI (SK-MEL-2 melanoma): 273 nM
- GI50 (SK-MEL-28 melanoma): 402 nM
- TGI (SK-MEL-28 melanoma): 1300 nM
- GI50 (SK-MEL-5 melanoma): 575 nM
- TGI (SK-MEL-5 melanoma): 1240 nM
- GI50 (SK-OV-3 ovarian): 426 nM
- TGI (SK-OV-3 ovarian): 1290 nM
- GI50 (SN12C renal): 88.8 nM
- TGI (SN12C renal): 766 nM
- GI50 (SNB-19 CNS): 289 nM
- TGI (SNB-19 CNS): 1820 nM
- GI50 (SNB-75 CNS): 25.7 nM
- TGI (SNB-75 CNS): 126 nM
- GI50 (SR leukemia): 78.3 nM
- TGI (SR leukemia): 760 nM
- GI50 (SW-620 colon): 83.1 nM
- TGI (SW-620 colon): 257 nM
- GI50 (T-47D breast): 325 nM
- TGI (T-47D breast): 1580 nM
- GI50 (TK-10 renal): 232 nM
- TGI (TK-10 renal): 729 nM
- GI50 (U251 CNS): 265 nM
- TGI (U251 CNS): 984 nM
- GI50 (UACC-257 melanoma): 692 nM
- TGI (UACC-257 melanoma): 2130 nM
- GI50 (UACC-62 melanoma): 284 nM
- TGI (UACC-62 melanoma): 832 nM
- GI50 (UO-31 renal): 777 nM
- TGI (UO-31 renal): 1990 nM
